For data set [1], the system named is 6-AmHap-Abs. The data set is classed as binding, mouse. Particulars: for Ki: read-out: Heterologous MST Ki; for IC50: read-out: Heterologous MST IC50. The protocol: The final concentrations of 6-AmHap-Abs, MorHap-Cy5 in the capillaries were 10 nM and 0.25 nM, respectively. The same procedure was performed for the binding of the 6-AmHap-Abs to the other drugs but different concentrations of competitor working solutions were used.
For the heroin-binding assay in the presence of esterase inhibitors, a working solution containing 6-AmHap antibody (40 nM) and 80 μM iso-OMPA/80 μM BNPP was incubated for 2 h at RT. An equal volume of MorHap-Cy5 (1 nM) was then mixed with the 6-AmHap-Abs/iso-OMPA/BNPP mixture and the reaction mixture was further incubated for 20 min in the dark at RT. The rest of the procedure was performed as described above. The final concentrations of 6-AmHap-Abs, iso-OMPA/BNPP, and MorHap-Cy5 in the capillaries were 10 nM, 20 μM/20 μM, and 0.25 nM, respectively.
(§1) The MST measurements were done on a Monolith™ NT.115^Pico instrument from NanoTemper Technologies GmbH. The instrument was equipped with an IR laser (wavelength, 1475 ± 15 nm; power, 120 mW maximum) and a red fluorescence channel that can detect red dyes, such as Cy5 and Alexa Fluor 647. The samples were measured at an LED power of 20% and an MST power of 25% with a laser-on time of 30 s and a laser-off time of 5 s. MST measurements of 15–16 samples typically take ~ 20 min.
In the competition MST procedures, a constant concentration of MorHap-Cy5:antibody complex was titrated with an increasing concentration of drug competitor. […] The software plots Fnorm against 15–16 increasing drug competitor concentration points to yield the binding curve, and subsequently fits the curve to obtain the IC50. For presentation purposes, the fraction bound was manually calculated and plotted using the equation above where x is the Fnorm at a given competitor concentration. The binding affinities (Ki) from the heterologous MST assays were then derived using the Ki-Finder software from the Nanotemper website. In order to calculate the Ki, the following parameters must be entered into the Ki-Finder website: the binding affinity of the tracer against the antibody (Kd), the concentration of the antibody (I0), the concentration of the tracer (labeled T0), the highest concentration of the competitor (L0), and the IC50 of the competitor to the antibody. The website then plots both the binding curve and competition curve to produce the competitor Ki, also known as the Kd of the antibody to the drug competitor.

The subject of data set [2] is 6-AmHap-Abs. Particulars: ref Sulima et al [3]; read-out: Competition ELISA Homologous, IC50; cited from earlier work.
In data set [3] the test system is 6-AmHap-Abs. It counts as binding, mouse. As to conditions: read-out: Competition ELISA Heterologous, IC50. Background: ELISA stands for enzyme-linked immunosorbent assay.
For data set [4] the following is noted: degradation of heroin in humans, Fig. 1a; cited from earlier work.
The target of data set [5] is Anti-morphine antibody (ab1060). The data set is classed as binding, mouse. As to conditions: 0.25 nM MorHap-Cy5, 10 nM ab1060, 4000 nM competitor. The protocol:
as §1
In the competition MST procedures, a constant concentration of MorHap-Cy5:antibody complex was titrated with an increasing concentration of drug competitor. […] The software plots Fnorm against 15–16 increasing drug competitor concentration points to yield the binding curve, and subsequently fits the curve to obtain the IC50. For presentation purposes, the fraction bound was manually calculated and plotted using the equation above where x is the Fnorm at a given competitor concentration. The binding affinities (Ki) from the heterologous MST assays were then derived using the Ki-Finder software from the Nanotemper website. […]

Data set [6] deals with 6-AmHap-Abs. The data set is classed as binding, mouse. Particulars: read-out: Kd of 6-AmHap-Abs derived from ED-UPLC/MS/MS; post-immune serum diluted 1:1600, 5 nM D3-tracer.
Procedure: Post-immune sera (week 8) from the mouse study described by Sulima et al. [12] were used in this study. […] Briefly, post-immune serum was diluted in DPBS (1:1600). Dialysis buffer was prepared by diluting the corresponding pre-immune serum (week 0) in DPBS (1:1600). […] A 100-μL dilution of week 8 serum containing 5 nM D3-tracer was pipetted into the sample chamber, and a 300-μL aliquot of the competitive inhibitor solution was added to the buffer chamber. Both week 8 and week 0 were run against each other at the same sera dilutions. For negative controls, the same setup was employed except both sides of the dialysis chamber contained only week 0 serum. Equilibrium dialysis, preparation of samples for UPLC/MS/MS, and calculation of Kd were performed as described [13].
The antibody binding site concentration was derived from Müller’s equation [17] and was calculated using the following formula: Abt=bTt+b×Kd/1−b where [Abt] is the total concentration of the antibody binding sites, b is the fraction of bound D3-tracer in the absence of competitive inhibitor, [Tt] is the total molar concentration of the D3-tracer after equilibrium, and Kd is the apparent dissociation constant.
[7] abbreviates: 0.25 nM MorHap-Cy5, 10 nM antibody binding sites, without esterase inhibitors.
Setting [8] is: 0.25 nM MorHap-Cy5, 10 nM antibody binding sites, without esterase inhibitors, […].

By Ki is commonly meant the equilibrium dissociation constant of an inhibitor or competing ligand from its target. As a reminder, the IC50 is the concentration that gives 50% inhibition.

Read-outs that look alike come from different tables or passages of the source.

For `CN1CCCCC1` [N-Methylpiperidine, N-methylpiperidine], the “Heterologous MST IC50” value with 6-AmHap-Abs [1] (setting [7]) is recorded as “No binding”. Besides, the “Heterologous MST Ki” value on 6-AmHap-Abs [1] (setting [8]) is “No binding”; on 6-AmHap-Abs [1] (0.25 nM MorHap-Cy5, 10 nM antibody binding sites, without esterase inhibitors, […], listed as N-methylpiperidine), “Neither acetanilide nor N-methylpiperidine bound”.
Regarding `C[N+]1([O-])CC[C@]23c4c5ccc(O)c4O[C@H]2[C@@H](O)C=C[C@H]3[C@H]1C5` (stereo partly drawn) [Morphine N-Oxide, morphine N-oxide], at 6-AmHap-Abs [1] (setting [8]), the Ki worked out at 6460 ± 4780 nM. Also, the concentration for half-maximal inhibition (IC50) with 6-AmHap-Abs [1] (setting [7]) came to 12651 ± 1.33 nM.
On to `C=CCN1CC[C@]23c4c5ccc(O)c4O[C@H]2[C@@H](O)C=C[C@H]3[C@H]1C5` [Nalorphine, nalorphine], for which the Ki on 6-AmHap-Abs [1] (setting [8]) amounted to 2.93 ± 0.98 nM. In addition, the IC50 in the data set on 6-AmHap-Abs [1] (setting [7]) stood at 10.6 ± 0.89 nM.
Turning to `Oc1ccc2c3c1O[C@H]1[C@@H](O)C=C[C@H]4[C@@H](C2)NCC[C@@]341` [Normorphine, normorphine], the IC50 was 112 ± 22.3 µM with 6-AmHap-Abs [2], 136 ± 0.94 nM in the data set on 6-AmHap-Abs [1] (setting [7]) and 3220 ± 2000 nM in the data set with 6-AmHap-Abs [3]. Also, the Ki on 6-AmHap-Abs [1] (setting [8]) worked out at 55.1 ± 7.58 nM.
`CC(=O)Nc1ccccc1` [Acetanilide, acetanilide]: the “Heterologous MST IC50” value with 6-AmHap-Abs [1] (setting [7]) was “No binding”. Further, the “Heterologous MST Ki” value is “No binding” on 6-AmHap-Abs [1] (setting [8]) and “Neither acetanilide nor N-methylpiperidine bound” on 6-AmHap-Abs [1] (0.25 nM MorHap-Cy5, 10 nM antibody binding sites, without esterase inhibitors, […], listed as acetanilide).
Turning to `CN1CC[C@]23c4c5ccc(O)c4O[C@H]2C(=O)CC[C@@]3(O)[C@H]1C5` [Oxymorphone, oxymorphone], the half-maximal inhibitory concentration (IC50) was 125 ± 28.6 µM in the data set with 6-AmHap-Abs [2], 598.1 ± 0.95 nM in the data set on 6-AmHap-Abs [1] (setting [7]) and 2430 ± 864 nM in the data set with 6-AmHap-Abs [3]. In addition, the Ki at 6-AmHap-Abs [1] (setting [8]) is 251 ± 7 nM.
For the molecule `CN1CC[C@]23c4c5ccc(O[C@@H]6O[C@H](C(=O)O)[C@@H](O)[C@H](O)[C@H]6O)c4O[C@H]2[C@@H](O)C=C[C@H]3[C@H]1C5` [M-3G, morphine-3-β-glucuronide], the t1/2 in data set [4] is 4.5 h. Further, the values for the IC50 in the data set on 6-AmHap-Abs [2], in the data set with 6-AmHap-Abs [1] (setting [7]) and in the data set with 6-AmHap-Abs [3] were 28 ± 11.4 µM, 69.1 ± 1.24 nM and 23.2 ± 7.33 nM, respectively. The Ki on 6-AmHap-Abs [1] (setting [8]) came out at 27.9 ± 4.14 nM.
As for `CN1CC[C@]23CCCC[C@H]2[C@H]1Cc1ccc(O)cc13` [Levorphanol, levorphanol], the IC50 in the data set with 6-AmHap-Abs [2] is 3.39 ± 0.9 µM; in the data set with 6-AmHap-Abs [1] (setting [7]) it was 33.7 ± 0.91 nM; in the data set on 6-AmHap-Abs [3], 341 ± 138 nM. For the same molecule, the Ki on 6-AmHap-Abs [1] (setting [8]) is 11.6 ± 4.41 nM.
Consider `CN1CC[C@]23c4c5ccc(O)c4O[C@H]2[C@@H](O)C=C[C@H]3[C@H]1C5O` (stereo partly drawn) [10-Hydroxymorphine, 10-hydroxymorphine], for which the Ki at 6-AmHap-Abs [1] (setting [8]) amounted to 18.4 ± 5.78 nM. Besides, the IC50 with 6-AmHap-Abs [1] (setting [7]) amounted to 51.2 ± 0.72 nM.
For the molecule `CN1CC[C@]23c4c5ccc(O)c4O[C@H]2[C@@H](O[C@@H]2O[C@H](C(=O)O)[C@@H](O)[C@H](O)[C@H]2O)C=C[C@H]3[C@H]1C5` [M-6G, morphine-6-β-glucuronide], the t1/2 in data set [4] was 4.60 h. Further, the figures for the 50% inhibitory concentration (IC50) in the data set on 6-AmHap-Abs [2], with 6-AmHap-Abs [1] (setting [7]) and with 6-AmHap-Abs [3] were 25 ± 12.1 µM, 5.88 ± 1.22 nM and 11.3 ± 2.16 nM, respectively. At 6-AmHap-Abs [1] (setting [8]), the Ki came out at 0.66 ± 0.9 nM.
Regarding `CN1CC[C@]23c4c5ccc(O)c4O[C@H]2CCC[C@H]3[C@H]1C5` [Desomorphine, desomorphine], in the data set on 6-AmHap-Abs [1], the IC50 stood at 9.07 ± 0.73 nM and the inhibition constant Ki turned out to be 0.9 ± 0.64 nM.
`COC1=CC=C2[C@H]3Cc4ccc(OC)c5c4[C@@]2(CCN3C)[C@H]1O5` [Thebaine, thebaine]: the Ki on 6-AmHap-Abs [1] (setting [8]) was found to be 13.1 ± 5.47 nM. For the same molecule, the half-inhibitory concentration (IC50) in the data set with 6-AmHap-Abs [1] (setting [7]) amounted to 35.6 ± 0.91 nM.
In data set [5], `CN1CC[C@]23c4c5ccc(O)c4O[C@H]2[C@H](NC(=O)CCSCC(N)=O)C=C[C@H]3[C@H]1C5` [MorHap-acetamide] displayed a Ki of 14 ± 7.97 nM.
Take 6-acetylmorphine [6-AM]: the t1/2 in data set [4] is 0.367 to 0.433 h. Moreover, the Kd on 6-AmHap-Abs [6] stood at 0.53 ± 0.28 nM. Moreover, the IC50 in the data set with 6-AmHap-Abs [2] was 3.72 ± 0.7 µM; in the data set on 6-AmHap-Abs [1] (setting [7]), 6.75 ± 1.17 nM; with 6-AmHap-Abs [3], 19.8 ± 6.33 nM. Besides, the inhibitory constant (Ki) on 6-AmHap-Abs [1] (setting [8]) was found to be 0.44 ± 0.33 nM.

These data come from publication PMC5956019, “A rapid solution-based method for determining the affinity of heroin hapten-induced antibodies to heroin, its metabolites, and other opioids” (Analytical and Bioanalytical Chemistry, 2018).
